Tests used:
Homo sapiens = organism: Homo sapiens; assay: Antiproliferative activity was evaluated by the 72 hr MTT cell viability assay using human colon carcinoma cells (GC3).; assay type: functional
Mus musculus = organism: Mus musculus; assay: Compound was tested for its antitumor activity in murine pancreatic adenocarcinoma PO3 model at the maximum tolerated dose(MTD); assay type: functional

SMILES | IC50 (Homo sapiens; Homo sapiens, MTT, 72 h) | T/C (Mus musculus) | IC50 (Homo sapiens; mtt)
COc1ccc(C[C@H]2NC(=O)/C=C/C[C@@H]([C@H](C)[C@H]3O[C@@H]3c3ccccc3)OC(=O)[C@H](CC(C)C)OC(=O)C[C@@H](Cc3ccccc3)NC2=O)cc1Cl | 5.2 nM |  | 
COc1ccc(C[C@H]2NC(=O)/C=C/C[C@@H]([C@H](C)[C@H]3O[C@@H]3c3ccccc3)OC(=O)[C@H](CC(C)C)OC(=O)C(C)(C)CNC2=O)cc1Cl [CRYPTOPHYCIN 52] | 0.2 nM | < 5% | 
COc1ccc(C[C@H]2NC(=O)/C=C/C[C@@H]([C@H](C)[C@H]3O[C@@H]3c3ccccc3)OC(=O)[C@H](CC(C)C)OC(=O)[C@H](CC(C)C)NC2=O)cc1Cl | 320 nM |  | 
COc1ccc(C[C@H]2NC(=O)/C=C/C[C@@H]([C@H](C)[C@H]3O[C@@H]3c3ccccc3)OC(=O)[C@H](CC(C)C)OC(=O)C[C@@H](C)NC2=O)cc1Cl (stereo in doubt; 12a) |  |  | 0.4 nM
COc1ccc(C[C@H]2NC(=O)/C=C/C[C@@H]([C@H](C)[C@H]3O[C@@H]3c3ccccc3)OC(=O)[C@H](CC(C)C)OC(=O)[C@H](C)NC2=O)cc1Cl | 13 nM |  | 
COc1ccc(C[C@H]2NC(=O)/C=C/C[C@@H]([C@H](C)[C@H]3O[C@@H]3c3ccccc3)OC(=O)[C@H](CC(C)C)OC(=O)[C@H](C(C)C)NC2=O)cc1Cl | 306 nM |  | 
COc1ccc(C[C@H]2NC(=O)/C=C/C[C@@H]([C@H](C)[C@H]3O[C@@H]3c3ccccc3)OC(=O)[C@H](CC(C)C)OC(=O)[C@@H]3CCCCC3NC2=O)cc1Cl (some centres not stated) | 1.3 nM |  | 
COc1ccc(C[C@H]2NC(=O)/C=C/C[C@@H]([C@H](C)[C@H]3O[C@@H]3c3ccccc3)OC(=O)[C@H](CC(C)C)OC(=O)[C@H](C)CNC2=O)cc1Cl [CRYPTOPHYCIN A] | 0.24 nM | < 5% | 
COc1ccc(C[C@H]2NC(=O)/C=C/C[C@@H]([C@H](C)[C@H]3O[C@@H]3c3ccccc3)OC(=O)[C@H](CC(C)C)OC(=O)[C@@H]3CCCN3C2=O)cc1Cl | > 1500 nM |  | 
COc1ccc(C[C@H]2NC(=O)/C=C/C[C@@H]([C@H](C)[C@H]3O[C@@H]3c3ccccc3)OC(=O)[C@H](CC(C)C)OC(=O)C[C@@H](CC(C)C)NC2=O)cc1Cl | 3 nM |  | 
COc1ccc(C[C@H]2NC(=O)/C=C/C[C@@H]([C@H](C)[C@H]3O[C@@H]3c3ccccc3)OC(=O)[C@H](CC(C)C)OC(=O)[C@H](Cc3ccccc3)NC2=O)cc1Cl | 1000 nM |  | 
COc1ccc(C[C@H]2NC(=O)/C=C/C[C@@H]([C@H](C)[C@H]3O[C@@H]3c3ccccc3)OC(=O)[C@H](CC(C)C)OC(=O)C[C@@H](c3ccccc3)NC2=O)cc1Cl | 0.94 nM |  | 
COc1ccc(C[C@H]2NC(=O)/C=C/C[C@@H]([C@H](C)[C@H]3O[C@@H]3c3ccccc3)OC(=O)[C@H](CC(C)C)OC(=O)C[C@@H](C)NC2=O)cc1Cl (stereo in doubt; 12b) |  |  | 0.03 nM
COc1ccc(C[C@H]2NC(=O)/C=C/C[C@@H]([C@H](C)[C@H]3O[C@@H]3c3ccccc3)OC(=O)[C@H](CC(C)C)OC(=O)c3ccccc3NC2=O)cc1Cl | 870 nM |  | 
COc1ccc(C[C@H]2NC(=O)/C=C/C[C@@H]([C@H](C)[C@H]3O[C@@H]3c3ccccc3)OC(=O)[C@H](CC(C)C)NC(=O)C[C@@H](C)NC2=O)cc1Cl | 0.06 nM |  | 

From ChEMBL document CHEMBL1131700, “Synthesis and biological evaluation of novel cryptophycin analogs with modification in the beta-alanine region” (Bioorg Med Chem Lett, 1999)
